Broadly, the EC50 is the concentration that produces a half-maximal response. A low value points to greater potency.

Bounds are passed on as bounds.

In one experiment the target is T1, human S1P3 receptor (Homo sapiens, UniProt Q99500).
T1 construct: expressed in transfected cells
Briefly: FLIPR Ca+2 response assay, activation of human S1P3 receptor in T24 cells. The experiment is classed as cell-based. Conditions: for EC50: T24 cells stably expressing human S1P3, tested 0.61 nM to 10,000 nM; for Emax at 10 µM: T-24, receptor activity at highest dose (10 μM) relative to that induced by 5 nM sphingosine-1-phosphate, read-out: S1P3 (% efficacy). As to the method: Compounds were also assessed for their ability to activate or block activation of the human S1P3 receptor in T24 cells stably expressing the human S1P3 receptor. Ten thousand cells/well were plated into 384-well poly-D-lysine coated plates one day prior to use. The growth media for the S1P3 receptor expressing cell line was McCoy's 5A medium supplemented with 10% charcoal-treated fetal bovine serum (FBS), 1% antibiotic-antimycotic and 400 μg/ml geneticin. On the day of the experiment, the cells were washed twice with Hank's Balanced Salt Solution supplemented with 20 mM HEPES (HBSS/Hepes buffer). The cells were then dye loaded with 2 uM Fluo-4 diluted in the HBSS/Hepes buffer with 1.25 mM Probenecid and incubated at 37° C. for 40 minutes. Extracellular dye was removed by washing the cell plates four times prior to placing the plates in the FLIPR (Fluorometric Imaging Plate Reader, Molecular Devices). Ligands were diluted in HBSS/Hepes buffer and prepared in 384-well microplates. The positive control, Sphingosine-1-Phosphate (S1P), was diluted in HBSS/Hepes buffer with 4 mg/ml fatty acid free bovine serum albumin. The FLIPR transferred 12.5 μl from the ligand microplate to the cell plate and took fluorescent measurements for 75 seconds, taking readings every second, and then for 2.5 minutes, taking readings every 10 seconds. Drugs were tested over the concentration range of 0.61 nM to 10,000 nM. Data for Ca^+2 responses were obtained in arbitrary fluorescence units and not translated into Ca^+2 concentrations. IC50 values were determined through a […] regression analysis using the Levenburg Marquardt algorithm. In Table 1, NA is defined as “Not Active,” ND is defined as “Not Determined,” % efficacy is defined as “percent of receptor activity induced by a test compound at the highest dose test (10 μM) relative to the receptor activity induced by 5 nM sphingosine-1-phosphate,” and % inhibition is defined as “percent of receptor activity induced by 5 nM sphingosine-1-phosphate that is inhibited by a test compound at the highest dose tested (10 μM).”

For the next experiment, the system named is perfused porcine eyes. Conditions: IOVS 45, 2263, 2004; cited from earlier work.

T1 sequence (Q99500 whole entry): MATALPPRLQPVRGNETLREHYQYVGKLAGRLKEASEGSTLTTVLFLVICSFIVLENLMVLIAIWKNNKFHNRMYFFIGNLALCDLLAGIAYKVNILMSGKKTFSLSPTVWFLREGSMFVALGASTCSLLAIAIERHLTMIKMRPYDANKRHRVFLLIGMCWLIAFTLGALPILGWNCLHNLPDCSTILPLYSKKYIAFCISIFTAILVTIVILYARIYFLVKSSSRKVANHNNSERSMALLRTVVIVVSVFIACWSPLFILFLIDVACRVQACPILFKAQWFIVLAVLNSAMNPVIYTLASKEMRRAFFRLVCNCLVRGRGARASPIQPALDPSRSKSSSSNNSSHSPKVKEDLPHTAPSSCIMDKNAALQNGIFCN

At human S1P3 receptor (NA = Not Active), `CCOC(=O)c1nnc(-c2ccc(CC)cc2)c(-c2ccccc2)n1` [Example 13, Ethyl 6-(4-Ethylphenyl)-5-phenyl-1,2,4-triazine-3-carboxylate] displayed an EC50 of 1600 nM. The Emax at 10 µM on human S1P3 receptor worked out at 57%.
Molecule `CCOC(=O)c1nnc(-c2ccc(C)cc2)c(-c2ccccc2)n1` [Example 17, Ethyl 5-Phenyl-6-p-tolyl-1,2,4-triazine-3-carboxylate] displayed an EC50 on human S1P3 receptor (NA = Not Active) of 2900 nM.
Take `CCOC(=O)c1nnc(-c2ccccc2)c(-c2ccc(C(F)(F)F)cc2)n1` [Example 19, Ethyl 5-(4-Trifluoromethylphenyl)-6-phenyl-1,2,4-triazine-3-carboxylatate]: the Emax at 10 µM at human S1P3 receptor was 34%.
The molecule `CCOC(=O)c1ccc(-c2ccccc2)c(-c2ccccc2)n1` [Example 21, Ethyl 5,6-diphenylpyridine-2-carboxylate] yielded an EC50 at human S1P3 receptor (NA = Not Active) of 1800 nM. In addition, at human S1P3 receptor, the Emax at 10 µM worked out at 80%.
For the molecule `CCOC(=O)c1ccc(-c2ccc(C)cc2)c(-c2ccccc2)n1` [Example 22, Ethyl 6-Phenyl-5-p-tolyl-pyridine-2-carboxylate], the EC50 at human S1P3 receptor (NA = Not Active) is 740 nM. Further, at human S1P3 receptor, the Emax at 10 µM was 32%.
The matching figures for `CCOC(=O)c1ccc(-c2ccc(CC)cc2)c(-c2ccccc2)n1` [Example 23, Ethyl 5-(4-Ethyl-phenyl)-6-phenyl-pyridine-2-carboxylate]: 1400 nM and 82%.
As for `CCCc1ccc(-c2ccc(C(=O)OCC)nc2-c2ccccc2)cc1` [Example 24, Ethyl 6-Phenyl-5-(4-propylphenyl)-pyridine-2-carboxylate], the 50% effective concentration (EC50) on human S1P3 receptor (NA = Not Active) turned out to be 3100 nM. In addition, the Emax at 10 µM at human S1P3 receptor amounted to 50%.
In turn, `CCOC(=O)c1ccc(-c2ccccc2)c(-c2ccc(C)cc2)n1` [Example 27, Ethyl 5-Phenyl-6-p-tolyl-pyridine-2-carboxylate] yielded a half-maximal effective concentration (EC50) at human S1P3 receptor (NA = Not Active) of 3700 nM. In addition, the Emax at 10 µM on human S1P3 receptor worked out at 46%.
For `CCOC(=O)c1ccc(-c2ccccc2)c(-c2ccc(CC)cc2)n1` [Example 28, Ethyl 6-(4-Ethylphenyl)-5-phenyl-pyridine-2-carboxylate], in that order: 2900 nM and 48%.
`COC(=O)c1ccc(-c2ccccc2)c(-c2ccccc2)n1` [Example 30, Methyl 5,6-diphenylpyridine-2-carboxylate] returned an EC50 on human S1P3 receptor (NA = Not Active) of 700 nM. On human S1P3 receptor, the Emax at 10 µM was 84%.
For the molecule `COC(=O)c1ccc(-c2ccc(C)cc2)c(-c2ccccc2)n1` [Example 31, Methyl 6-Phenyl-5-p-tolyl-pyridine-2-carboxylate], the EC50 at human S1P3 receptor (NA = Not Active) worked out at 580 nM. Further, the Emax at 10 µM on human S1P3 receptor was 73%.
On human S1P3 receptor (NA = Not Active), `CCc1ccc(-c2ccc(C(=O)OC)nc2-c2ccccc2)cc1` [Example 32, Methyl 5-(4-Ethylphenyl)-6-phenyl-pyridine-2-carboxylate] came in with a concentration for a half-maximal effect (EC50) of 570 nM. The Emax at 10 µM on human S1P3 receptor is 88%.
On human S1P3 receptor (NA = Not Active), `CCCc1ccc(-c2ccc(C(=O)OC)nc2-c2ccccc2)cc1` [Example 33, Methyl 6-Phenyl-5-(4-propylphenyl)-pyridine-2-carboxylate] displayed an EC50 of 2900 nM. Moreover, the Emax at 10 µM at human S1P3 receptor stood at 81%.
Molecule `COC(=O)c1ccc(-c2ccccc2)c(-c2ccc(C(F)(F)F)cc2)n1` [Example 35, Methyl 5-Phenyl-6-(4-trifluoromethylphenyl)-pyridine-2-carboxylate] returned a concentration giving a half-maximal response (EC50) at human S1P3 receptor (NA = Not Active) of 2300 nM. Moreover, the Emax at 10 µM on human S1P3 receptor worked out at 91%.
As for `CCc1ccc(-c2ccc(C(=O)OC)nc2-c2ccncc2)cc1` [Example 52, Methyl 5-(4-Ethylphenyl)-6-(pyridin-4-yl)pyridine-2-carboxylate], at human S1P3 receptor, a half-maximal response (EC50) required 340 nM and the Emax at 10 µM was 90%.
`CC(=O)c1ccc(-c2ccccc2)c(-c2ccccc2)n1` [Example 75, 1-(5,6-Diphenyl-pyridin-2-yl)-ethanone] had an EC50 at human S1P3 receptor (NA = Not Active) of more than 10000 nM. For the same molecule, the Emax at 10 µM on human S1P3 receptor was 51%.
Molecule `CCC(=O)c1ccc(-c2ccccc2)c(-c2ccccc2)n1` [Example 76, 1-(5,6-Diphenyl-pyridin-2-yl)-propan-1-one] gave an EC50 on human S1P3 receptor (NA = Not Active) of 3400 nM. Also, on human S1P3 receptor, the Emax at 10 µM turned out to be 41%.
In the case of `CCC(=O)c1ccc(-c2ccccc2)c(-c2ccc(C(F)(F)F)cc2)n1` [Example 79, 1-[5-Phenyl-6-(4-trifluoromethyl-phenyl)-pyridin-2-yl]-propan-1-one], on human S1P3 receptor (NA = Not Active), the concentration for a half-maximal effect (EC50) was 2600 nM. Also, the Emax at 10 µM at human S1P3 receptor stood at 30%.
`CCc1ccc(-c2nnc(C(=O)OC)nc2-c2ccccc2)cc1` [Example 89, Methyl 6-(4-Ethyl-phenyl)-5-phenyl-1,2,4-triazine-3-carboxylate] showed an EC50 at human S1P3 receptor (NA = Not Active) of 2300 nM. In addition, the Emax at 10 µM at human S1P3 receptor amounted to 64%.
`COCc1ccc(-c2ccccc2)c(-c2ccccc2)n1` [Example 92, 6-Methoxymethyl-2,3-diphenyl-pyridine] showed an EC50 on human S1P3 receptor (NA = Not Active) of 2400 nM. Moreover, the Emax at 10 µM on human S1P3 receptor was 59%.
Take `COC(=O)c1cnc(-c2ccccc2)c(-c2ccccc2)n1` [Example 93, Methyl 5,6-Diphenyl-pyrazine-2-carboxylate]: the EC50 on human S1P3 receptor (NA = Not Active) came to 4100 nM. For the same molecule, at human S1P3 receptor, the Emax at 10 µM was found to be 62%.
The molecule `CC(=O)c1cnc(-c2ccccc2)c(-c2ccccc2)n1` [Example 94, 1-(5,6-Diphenyl-pyrazin-2-yl)-ethanone] registered an EC50 at human S1P3 receptor (NA = Not Active) of 2300 nM. For the same molecule, the Emax at 10 µM at human S1P3 receptor came to 61%.
For `CCC(=O)c1cnc(-c2ccccc2)c(-c2ccccc2)n1` [Example 95, 1-(5,6-Diphenyl-pyrazin-2-yl)-propan-1-one], in that order: 4400 nM and 95%.
Take `CCCCCCCCCCCCC/C=C/[C@@H](O)[C@@H](N)COP(=O)(O)O` [Example S1P, Sphingosine-1-Phosphate]: the “decrease of outflow facility” value in the experiment with perfused porcine eyes is reported as more than 30%.

Values taken from patent US7728014B2, “Heteroaromatic compounds having sphingosine-1-phosphate (S1P) receptor agonist biological activity” (Allergan, Inc., priority 2006, dated 2010).
